This is an account of results in paper PMC11314561, “Design and Synthesis of Novel Aminoindazole-pyrrolo[2,3-b]pyridine Inhibitors of IKKα That Selectively Perturb Cellular Non-Canonical NF-κB Signalling” (Molecules, 2024).

What all share (assay): kinase panel
Holding throughout (assay type): biochemical

Assay [1] addresses Arg(h) (Homo sapiens, UniProt P42684). Put shortly: (§1)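 % inhibition read-out; kinome panel of 231 kinases; one analogue run on a selected 98-kinase subset only.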
Assay [2] has as its target CaMKIIβ(h) (Homo sapiens, UniProt Q13554). Put shortly: as §1
In assay [3] the target is Flt1(h) (Homo sapiens, UniProt P17948). Put shortly: as §1
The target of assay [4] is JAK2(h) (Homo sapiens, UniProt O60674). The method in brief:
as §1

For assay [5], the target named is MINK(h) (Homo sapiens, UniProt Q8N4C8). Put shortly:
as §1

Assay [6] has as its target T1, PKD2(h) (Homo sapiens, UniProt Q9BZL6).
T1 sequence (Q9BZL6 1-878): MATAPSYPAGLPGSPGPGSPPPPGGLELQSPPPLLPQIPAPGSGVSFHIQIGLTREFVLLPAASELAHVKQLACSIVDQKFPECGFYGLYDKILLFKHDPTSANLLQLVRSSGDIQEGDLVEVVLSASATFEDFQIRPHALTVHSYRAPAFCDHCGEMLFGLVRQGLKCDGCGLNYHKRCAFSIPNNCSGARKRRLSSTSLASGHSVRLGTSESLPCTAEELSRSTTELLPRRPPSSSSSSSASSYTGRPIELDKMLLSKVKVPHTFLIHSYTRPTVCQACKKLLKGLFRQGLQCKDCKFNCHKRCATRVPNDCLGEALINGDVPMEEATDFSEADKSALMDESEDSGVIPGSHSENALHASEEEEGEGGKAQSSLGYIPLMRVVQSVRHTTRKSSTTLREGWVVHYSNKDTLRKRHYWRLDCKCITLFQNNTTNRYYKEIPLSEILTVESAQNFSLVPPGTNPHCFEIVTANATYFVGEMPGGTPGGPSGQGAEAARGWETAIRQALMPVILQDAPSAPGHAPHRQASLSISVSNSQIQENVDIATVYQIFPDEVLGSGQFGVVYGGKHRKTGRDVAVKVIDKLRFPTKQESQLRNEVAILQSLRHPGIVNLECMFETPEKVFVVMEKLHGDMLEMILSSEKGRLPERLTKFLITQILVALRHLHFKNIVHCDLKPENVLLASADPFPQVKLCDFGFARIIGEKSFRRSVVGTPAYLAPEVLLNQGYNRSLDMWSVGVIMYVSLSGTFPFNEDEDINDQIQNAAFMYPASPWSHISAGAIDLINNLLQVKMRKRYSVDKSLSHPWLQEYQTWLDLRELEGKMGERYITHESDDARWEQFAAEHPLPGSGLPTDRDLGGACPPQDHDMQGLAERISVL
Put shortly: as §1

The target in assay [7] is T2, TAO1(h) (Homo sapiens, UniProt Q7L7X3).
T2 sequence (Q7L7X3 1-1001): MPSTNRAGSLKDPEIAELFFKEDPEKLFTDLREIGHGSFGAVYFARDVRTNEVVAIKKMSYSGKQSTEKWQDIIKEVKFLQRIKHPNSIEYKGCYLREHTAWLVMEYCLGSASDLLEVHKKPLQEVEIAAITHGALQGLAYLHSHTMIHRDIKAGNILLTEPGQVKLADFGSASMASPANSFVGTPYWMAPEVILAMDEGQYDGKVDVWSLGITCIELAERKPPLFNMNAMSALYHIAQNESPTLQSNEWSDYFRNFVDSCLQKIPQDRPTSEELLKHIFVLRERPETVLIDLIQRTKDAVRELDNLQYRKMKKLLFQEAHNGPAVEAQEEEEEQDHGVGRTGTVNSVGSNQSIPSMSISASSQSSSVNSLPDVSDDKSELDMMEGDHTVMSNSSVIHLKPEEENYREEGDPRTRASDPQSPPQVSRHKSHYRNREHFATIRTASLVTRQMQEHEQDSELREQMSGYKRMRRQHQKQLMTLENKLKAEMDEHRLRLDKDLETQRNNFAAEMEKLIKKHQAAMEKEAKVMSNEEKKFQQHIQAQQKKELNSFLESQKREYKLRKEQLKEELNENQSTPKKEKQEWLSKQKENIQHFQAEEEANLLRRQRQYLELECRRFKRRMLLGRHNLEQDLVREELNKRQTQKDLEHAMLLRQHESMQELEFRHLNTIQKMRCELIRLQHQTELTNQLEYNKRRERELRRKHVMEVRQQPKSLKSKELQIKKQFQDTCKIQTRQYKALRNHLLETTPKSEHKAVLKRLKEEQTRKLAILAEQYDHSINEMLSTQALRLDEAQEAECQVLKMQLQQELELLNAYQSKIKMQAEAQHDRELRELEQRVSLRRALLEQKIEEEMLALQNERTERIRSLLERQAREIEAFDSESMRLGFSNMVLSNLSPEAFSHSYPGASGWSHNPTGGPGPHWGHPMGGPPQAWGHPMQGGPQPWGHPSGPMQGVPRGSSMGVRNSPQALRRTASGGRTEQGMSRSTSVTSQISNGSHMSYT
Put shortly: as §1

CaMKIIβ(h), sequence (Q13554 whole entry): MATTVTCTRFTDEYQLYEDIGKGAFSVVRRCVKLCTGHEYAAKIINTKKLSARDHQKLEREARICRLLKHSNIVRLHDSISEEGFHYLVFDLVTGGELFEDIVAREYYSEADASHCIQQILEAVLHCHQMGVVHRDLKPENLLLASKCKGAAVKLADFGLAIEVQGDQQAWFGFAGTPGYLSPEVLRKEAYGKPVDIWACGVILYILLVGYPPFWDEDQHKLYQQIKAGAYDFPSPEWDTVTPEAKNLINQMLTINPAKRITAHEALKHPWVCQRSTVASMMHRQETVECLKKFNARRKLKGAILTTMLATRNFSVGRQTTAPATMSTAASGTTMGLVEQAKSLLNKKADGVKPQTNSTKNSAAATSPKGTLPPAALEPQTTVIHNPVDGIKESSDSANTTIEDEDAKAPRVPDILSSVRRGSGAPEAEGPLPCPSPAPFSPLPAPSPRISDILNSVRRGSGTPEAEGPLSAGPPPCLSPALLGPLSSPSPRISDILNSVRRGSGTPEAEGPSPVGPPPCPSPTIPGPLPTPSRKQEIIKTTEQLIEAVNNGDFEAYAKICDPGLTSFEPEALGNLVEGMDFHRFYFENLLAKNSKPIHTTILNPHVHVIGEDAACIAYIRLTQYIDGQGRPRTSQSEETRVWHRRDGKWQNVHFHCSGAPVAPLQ
Arg(h), sequence (P42684 whole entry): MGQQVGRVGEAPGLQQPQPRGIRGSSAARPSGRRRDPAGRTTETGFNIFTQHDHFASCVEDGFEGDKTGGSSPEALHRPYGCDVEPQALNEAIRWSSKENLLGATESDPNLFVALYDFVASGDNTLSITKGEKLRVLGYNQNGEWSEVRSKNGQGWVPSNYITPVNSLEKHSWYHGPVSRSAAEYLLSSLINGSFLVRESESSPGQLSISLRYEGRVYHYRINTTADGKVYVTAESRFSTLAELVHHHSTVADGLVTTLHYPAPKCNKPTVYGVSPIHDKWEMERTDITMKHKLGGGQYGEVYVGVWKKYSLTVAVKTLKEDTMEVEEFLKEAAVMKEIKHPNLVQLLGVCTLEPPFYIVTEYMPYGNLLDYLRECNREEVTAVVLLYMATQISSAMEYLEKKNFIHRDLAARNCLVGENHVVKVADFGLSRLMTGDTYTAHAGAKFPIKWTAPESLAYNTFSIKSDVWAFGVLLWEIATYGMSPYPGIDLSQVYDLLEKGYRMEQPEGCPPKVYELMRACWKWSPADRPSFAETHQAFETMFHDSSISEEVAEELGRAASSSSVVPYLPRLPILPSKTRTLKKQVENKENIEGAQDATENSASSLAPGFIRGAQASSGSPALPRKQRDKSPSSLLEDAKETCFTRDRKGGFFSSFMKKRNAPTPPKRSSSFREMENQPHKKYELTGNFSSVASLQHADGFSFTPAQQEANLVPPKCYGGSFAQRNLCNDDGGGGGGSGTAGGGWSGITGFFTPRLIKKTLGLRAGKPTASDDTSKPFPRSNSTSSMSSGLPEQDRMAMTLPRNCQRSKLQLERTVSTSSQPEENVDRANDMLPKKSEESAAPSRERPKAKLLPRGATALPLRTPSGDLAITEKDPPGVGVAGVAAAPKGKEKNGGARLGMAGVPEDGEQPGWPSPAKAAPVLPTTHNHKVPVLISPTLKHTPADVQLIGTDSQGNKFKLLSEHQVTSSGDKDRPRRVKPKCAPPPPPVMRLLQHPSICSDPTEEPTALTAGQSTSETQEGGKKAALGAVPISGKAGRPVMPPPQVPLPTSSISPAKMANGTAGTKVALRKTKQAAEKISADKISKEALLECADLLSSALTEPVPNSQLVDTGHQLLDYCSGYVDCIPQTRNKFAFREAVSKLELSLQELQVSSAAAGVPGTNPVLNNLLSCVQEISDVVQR
JAK2(h), sequence (O60674 whole entry): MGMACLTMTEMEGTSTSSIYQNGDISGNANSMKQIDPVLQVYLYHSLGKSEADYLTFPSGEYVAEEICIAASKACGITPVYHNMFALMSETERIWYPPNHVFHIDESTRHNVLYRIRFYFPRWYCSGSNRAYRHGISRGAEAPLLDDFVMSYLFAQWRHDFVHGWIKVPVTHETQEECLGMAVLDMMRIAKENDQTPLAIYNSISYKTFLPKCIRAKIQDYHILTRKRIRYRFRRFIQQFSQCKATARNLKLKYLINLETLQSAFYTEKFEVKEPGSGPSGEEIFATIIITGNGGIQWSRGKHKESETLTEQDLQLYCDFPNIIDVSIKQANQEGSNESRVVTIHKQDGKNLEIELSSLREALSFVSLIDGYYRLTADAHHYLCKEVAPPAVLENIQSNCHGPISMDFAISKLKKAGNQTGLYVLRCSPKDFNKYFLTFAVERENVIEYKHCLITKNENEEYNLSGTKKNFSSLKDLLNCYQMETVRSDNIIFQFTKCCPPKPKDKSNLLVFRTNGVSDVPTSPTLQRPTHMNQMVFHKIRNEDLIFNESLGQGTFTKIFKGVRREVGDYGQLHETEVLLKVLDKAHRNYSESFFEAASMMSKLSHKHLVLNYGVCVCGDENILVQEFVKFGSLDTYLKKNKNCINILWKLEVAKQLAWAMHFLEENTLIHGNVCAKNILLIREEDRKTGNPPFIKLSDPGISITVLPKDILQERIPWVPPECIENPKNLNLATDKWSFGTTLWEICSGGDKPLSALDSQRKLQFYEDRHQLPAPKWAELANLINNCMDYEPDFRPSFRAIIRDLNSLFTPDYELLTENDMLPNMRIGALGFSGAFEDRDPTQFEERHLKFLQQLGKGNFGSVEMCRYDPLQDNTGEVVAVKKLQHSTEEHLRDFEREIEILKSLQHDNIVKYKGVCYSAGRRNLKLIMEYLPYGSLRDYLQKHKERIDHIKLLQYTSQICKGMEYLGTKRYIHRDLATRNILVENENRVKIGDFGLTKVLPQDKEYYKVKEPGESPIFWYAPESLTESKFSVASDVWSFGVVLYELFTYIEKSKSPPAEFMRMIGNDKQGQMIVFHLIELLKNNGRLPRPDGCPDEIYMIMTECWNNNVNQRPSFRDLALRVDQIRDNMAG
MINK(h), sequence (Q8N4C8 whole entry): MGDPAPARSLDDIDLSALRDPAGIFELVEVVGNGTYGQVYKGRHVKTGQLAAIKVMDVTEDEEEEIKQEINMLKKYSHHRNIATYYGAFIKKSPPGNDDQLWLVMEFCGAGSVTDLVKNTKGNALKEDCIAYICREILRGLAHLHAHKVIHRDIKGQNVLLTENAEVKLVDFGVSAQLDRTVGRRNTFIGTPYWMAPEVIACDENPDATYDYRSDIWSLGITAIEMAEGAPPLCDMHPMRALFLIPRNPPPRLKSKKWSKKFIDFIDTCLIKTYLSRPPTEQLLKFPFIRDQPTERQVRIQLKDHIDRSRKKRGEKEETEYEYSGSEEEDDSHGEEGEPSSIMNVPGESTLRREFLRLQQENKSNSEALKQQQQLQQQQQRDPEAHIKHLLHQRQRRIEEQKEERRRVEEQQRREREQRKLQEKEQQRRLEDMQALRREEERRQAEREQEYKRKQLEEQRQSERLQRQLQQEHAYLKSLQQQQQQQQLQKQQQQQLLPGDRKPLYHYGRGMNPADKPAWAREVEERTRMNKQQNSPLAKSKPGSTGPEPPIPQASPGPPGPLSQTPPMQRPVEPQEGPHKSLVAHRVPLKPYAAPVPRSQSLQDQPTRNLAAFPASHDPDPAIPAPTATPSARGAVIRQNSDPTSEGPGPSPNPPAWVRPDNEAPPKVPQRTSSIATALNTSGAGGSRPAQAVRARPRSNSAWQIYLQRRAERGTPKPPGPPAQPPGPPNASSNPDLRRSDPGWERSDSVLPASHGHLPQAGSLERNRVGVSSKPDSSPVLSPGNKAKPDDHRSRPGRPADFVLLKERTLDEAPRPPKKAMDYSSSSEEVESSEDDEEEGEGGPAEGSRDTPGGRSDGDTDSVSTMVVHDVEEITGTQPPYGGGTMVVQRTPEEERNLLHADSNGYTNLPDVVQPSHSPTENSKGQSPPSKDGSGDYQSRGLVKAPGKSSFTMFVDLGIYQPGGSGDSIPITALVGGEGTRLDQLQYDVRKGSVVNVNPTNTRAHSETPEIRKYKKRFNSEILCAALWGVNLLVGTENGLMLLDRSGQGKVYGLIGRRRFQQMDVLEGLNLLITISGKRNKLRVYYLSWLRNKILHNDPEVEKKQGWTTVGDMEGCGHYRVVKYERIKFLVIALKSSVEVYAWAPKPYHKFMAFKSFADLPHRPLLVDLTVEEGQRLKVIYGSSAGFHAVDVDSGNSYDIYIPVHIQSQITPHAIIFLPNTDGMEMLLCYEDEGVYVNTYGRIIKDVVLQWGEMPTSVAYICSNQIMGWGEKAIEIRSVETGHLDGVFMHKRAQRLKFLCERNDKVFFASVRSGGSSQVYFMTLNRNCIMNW

By inhibition is commonly meant the relative decrease from the control value, in per cent. As for `Nc1n[nH]c2ccc(-c3ccnc4[nH]c(-c5ccccc5)cc34)cc12` [Compound 4], the inhibition at 1 µM came to 96% in assay [1]; 74% in assay [2]; 94% in assay [3]; 88% in assay [4]; 92% in assay [5]; 8% in assay [6]. Further, the inhibition at 1 µM in assay [7] stood at 73%.

On to `Nc1n[nH]c2ccc(-c3ccnc4[nH]c(-c5cccc(OCc6ccccc6)c5)cc34)cc12` [Compound 5r [SU1261]], for which the inhibition at 1 µM in assay [1] was 76%; in assay [2] it was 47%; in assay [3], 58%; in assay [4], 73%; in assay [5] it was 51%; in assay [6], -1%. For the same compound, the inhibition at 1 µM in assay [7] was found to be 16%.

In the case of `Nc1n[nH]c2ccc(-c3ccnc4[nH]c(-c5ccnc(OCc6ccccc6)c5)cc34)cc12` [Compound 6g [SU1349]], the inhibition at 1 µM in assay [1] was 24%; in assay [2], 12%; in assay [3], 6%; in assay [4], 35%; in assay [5] it was 41%; in assay [6] it was -5%. The inhibition at 1 µM in assay [7] was 5%.
